In patent US10954240B2, “Compounds inhibiting leucine-rich repeat kinase enzyme activity” (Merck Sharp & Dohme Corp., priority 2014, dated 2021):
Counter-ions that a name gives are not always drawn.

Molecular target: LRRK2 (G2019S mutation, GST-LRRK2 (amino acids 970-2527)) (Homo sapiens (Human), UniProt Q5S007, G2019S)
Assay: LRRK2 Km ATP LanthaScreen Assay
Format: biochemical
Conditions: mean IC50 of several test results
Description: Unless otherwise noted, all LRRK2 IC50 data presented in tables refers to the LRRK2 Km ATP LanthaScreen™ Assay that is described in the Biological Assay section.
The data presented for the Km ATP LanthaScreen™ Assay represents mean IC50 values based on several test results and may have reasonable deviations depending on the specific conditions and reagents used. Reagents for the LRRK2 Km ATP LanthaScreen™ Assay were purchased from Life Technologies Corporation.
LRRK2 Km ATP LanthaScreen™ Assay
a) 400 nl of a 1:2.15 serial dilution of test compound (98 μM top assay concentration) is spotted via Labcyte Echo to certain wells in a 384 well black, untreated plate. Control wells contain 400 nl of either DMSO or 400 nl of a known inhibitor in DMSO.
c) A 30 minute room temperature incubation is followed by addition of 10 μl of 800 nM fluorescein labeled LRRKtide peptide substrate and 186 μM ATP solution in 1× assay buffer to all wells.
d) After a 60 minute room temperature incubation, 20 μl of TR-FRET Dilution Buffer (Invitrogen PV3756B) containing 4 nM Tb-labeled anti-phospho LRRKtide antibody and 20 mM EDTA is added to all wells.
e) Plates are incubated at room temperature for 1 hour and read on an Envision™ multi-mode plate reader with LanthaScreen™ settings. Results are analysed using Assay Data Analyzer.

Chain of LRRK2 (G2019S mutation, GST-LRRK2 (amino acids 970-2527)) (Q5S007 970-2527 G2019S): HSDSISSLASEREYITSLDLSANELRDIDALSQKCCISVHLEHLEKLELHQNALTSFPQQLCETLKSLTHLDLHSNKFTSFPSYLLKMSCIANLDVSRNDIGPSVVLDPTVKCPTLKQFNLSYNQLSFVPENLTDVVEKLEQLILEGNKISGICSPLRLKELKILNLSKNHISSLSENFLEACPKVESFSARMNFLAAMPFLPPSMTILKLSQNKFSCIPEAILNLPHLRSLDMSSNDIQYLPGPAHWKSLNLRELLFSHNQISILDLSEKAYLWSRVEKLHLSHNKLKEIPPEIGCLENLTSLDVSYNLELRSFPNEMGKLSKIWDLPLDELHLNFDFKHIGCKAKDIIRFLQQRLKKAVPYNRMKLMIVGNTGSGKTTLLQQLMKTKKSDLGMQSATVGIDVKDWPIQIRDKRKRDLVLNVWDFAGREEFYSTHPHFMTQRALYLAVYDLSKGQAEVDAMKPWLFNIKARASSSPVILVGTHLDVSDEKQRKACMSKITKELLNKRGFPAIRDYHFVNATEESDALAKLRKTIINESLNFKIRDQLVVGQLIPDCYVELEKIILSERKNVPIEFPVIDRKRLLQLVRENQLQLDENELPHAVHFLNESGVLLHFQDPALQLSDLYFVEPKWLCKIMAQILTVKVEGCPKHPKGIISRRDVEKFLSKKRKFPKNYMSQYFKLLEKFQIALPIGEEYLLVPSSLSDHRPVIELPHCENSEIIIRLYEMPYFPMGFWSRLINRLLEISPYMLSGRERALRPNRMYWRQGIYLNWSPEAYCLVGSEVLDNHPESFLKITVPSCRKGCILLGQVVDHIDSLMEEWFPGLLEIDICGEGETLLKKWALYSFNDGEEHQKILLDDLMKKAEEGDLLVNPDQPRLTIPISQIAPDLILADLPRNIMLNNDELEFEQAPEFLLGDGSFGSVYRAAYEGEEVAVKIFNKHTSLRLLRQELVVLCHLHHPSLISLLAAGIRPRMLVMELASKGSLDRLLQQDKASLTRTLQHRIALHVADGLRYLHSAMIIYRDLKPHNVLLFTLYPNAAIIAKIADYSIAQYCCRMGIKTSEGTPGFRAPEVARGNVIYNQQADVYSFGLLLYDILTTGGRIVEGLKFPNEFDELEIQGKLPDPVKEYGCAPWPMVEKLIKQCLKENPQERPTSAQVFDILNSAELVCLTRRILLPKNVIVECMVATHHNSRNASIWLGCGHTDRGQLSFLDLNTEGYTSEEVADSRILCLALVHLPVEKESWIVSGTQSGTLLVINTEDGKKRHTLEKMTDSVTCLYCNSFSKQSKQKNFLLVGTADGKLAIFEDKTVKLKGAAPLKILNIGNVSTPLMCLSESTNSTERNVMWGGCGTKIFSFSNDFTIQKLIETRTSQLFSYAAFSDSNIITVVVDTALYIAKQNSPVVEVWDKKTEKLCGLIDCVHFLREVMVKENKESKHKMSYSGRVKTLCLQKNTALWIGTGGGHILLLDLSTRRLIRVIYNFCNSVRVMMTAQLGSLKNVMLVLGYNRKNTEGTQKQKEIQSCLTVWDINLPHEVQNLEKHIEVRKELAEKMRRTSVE

SMILES | IC50 [µM]
c1ccc2c(c1)cnn2-c1ccnc(N2CCOCC2)c1 [Example 2, 4-(4-(1H-indazol-1-yl)pyridin-2-yl)morpholine] | 0.633
Cn1cc(-c2cc(F)c3cnn(-c4ccnc(N5CCOCC5)c4)c3c2)cn1 [Example 3, 4-(4-(4-fluoro-6-(1-methyl-1H-pyrazol-4-yl)-1H-indazol-1-yl)pyridin-2-yl)morpholine] | 0.228
CC(C)Oc1ccc2cnn(-c3ccnc(N4CCOCC4)c3)c2c1 [Example 4, 4-(4-(6-isopropoxy-1H-indazol-1-yl)pyridin-2-yl)morpholine hydrochloride] | 0.122
Cn1cncc1-c1ccc2cnn(-c3ccnc(N4CCOCC4)c3)c2c1 [Example 6, 4-(4-(6-(1-methyl-1H-imidazol-5-yl)-1H-indazol-1-yl)pyridin-2-yl)morpholine] | 0.119
CN1CCN(c2cc(-n3ncc4ccc(-c5cnn(C)c5)cc43)ccn2)CC1 [Example 9, 6-(1-methyl-1H-pyrazol-4-yl)-1-(2-(4-methylpiperazin-1-yl)pyridin-4-yl)-1H-indazole] | 0.056
CN1CCN(c2cc(-n3ncc4ccc(-c5cnn(C)c5)cc43)ccn2)CC1=O [Example 10, 1-methyl-4-(4-(6-(1-methyl-1H-pyrazol-4-yl)-1H-indazol-1-yl)pyridin-2-yl)piperazin-2-one] | 0.126
Cn1cc(-c2ccc3cnn(-c4ccnc(N5CC(F)(F)C5)c4)c3c2)cn1 [Example 11, 1-(2-(3,3-difluoroazetidin-1-yl)pyridin-4-yl)-6-(1-methyl-1H-pyrazol-4-yl)-1H-indazole] | 0.224
Cn1cc(-c2ccc3cnn(-c4ccnc(N5CC[C@H](F)C5)c4)c3c2)cn1 [Example 13, (S)-1-(2-(3-fluoropyrrolidin-1-yl)pyridin-4-yl)-6-(1-methyl-1H-pyrazol-4-yl)-1H-indazole] | 0.108
Cn1cc(-c2ccc3cnn(-c4ccnc(N5CC(F)C5)c4)c3c2)cn1 [Example 14, 1-(2-(3-fluoroazetidin-1-yl)pyridin-4-yl)-6-(1-methyl-1H-pyrazol-4-yl)-1H-indazole] | 0.145
Cn1cc(-c2ccc3cnn(-c4ccnc(N5CCN(C(=O)OC(C)(C)C)CC5)c4)c3c2)cn1 [Example 15, tert-butyl 4-(4-(6-(1-methyl-1H-pyrazol-4-yl)-1H-indazol-1-yl)pyridin-2-yl)piperazine-1-carboxylate] | 0.034
Cn1cc(-c2ccc3cnn(-c4ccnc(N5CCC(S(C)(=O)=O)CC5)c4)c3c2)cn1 [Example 16, 6-(1-methyl-1H-pyrazol-4-yl)-1-(2-(4-(methylsulfonyl)piperidin-1-yl)pyridin-4-yl)-1H-indazole] | 0.128
c1cc(-n2ncc3ccc(-c4cn[nH]c4)cc32)cc(N2CCOCC2)n1 [Example 18, 4-(4-(6-(1H-pyrazol-4-yl)-1H-indazol-1-yl)pyridin-2-yl)morpholine] | 0.073
CCn1cc(-c2ccc3cnn(-c4ccnc(N5CCOCC5)c4)c3c2)cn1 [Example 19, 4-(4-(6-(1-ethyl-1H-pyrazol-4-yl)-1H-indazol-1-yl)pyridin-2-yl)morpholine] | 0.128
CC(C)Oc1ccc2cnn(-c3ccnc(N4CCn5ccnc5C4)c3)c2c1 [Example 23, 7-(4-(6-isopropoxy-1H-indazol-1-yl)pyridin-2-yl)-5,6,7,8-tetrahydroimidazo[1,2-a]pyrazine] | 0.446
CCc1nnc2n1CCN(c1cc(-n3ncc4ccc(OC(C)C)cc43)ccn1)C2 [Example 24, 3-ethyl-7-(4-(6-isopropoxy-1H-indazol-1-yl)pyridin-2-yl)-5,6,7,8-tetrahydro-[1,2,4]triazolo[4,3-a]pyrazine] | 0.435
CC(C)Oc1ccc2cnn(-c3ccnc(N4CCOC(CCO)C4)c3)c2c1 (centres unmarked) [Example 25, 2-(4-(4-(6-isopropoxy-1H-indazol-1-yl)pyridin-2-yl)morpholin-2-yl)ethanol] | 0.412
CC(C)Oc1ccc2cnn(-c3ccnc(N4CCC4)c3)c2c1 [Example 26, 1-(2-(azetidin-1-yl)pyridin-4-yl)-6-isopropoxy-1H-indazole] | 0.584
